The source made the active and inactive calls.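 How the source made its calls: active means EC50 at or below 10 µM; inactive means EC50 above 10 µM.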
Target: Nuclear hormone receptor DAF-12 (Heterodera glycines)
Assay: H. glycines DAF-12 receptor agonist potency, dose response, cell-based, luminescence, HEK293 (AID 743059);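 further: agonist potency for compounds that raise hgDAF-12 reporter luminescence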
Conditions: HEK293 hgDAF-12 reporter, luciferase luminescence

| EC50 | Structure (SMILES) |
| --- | --- |
| > 67.6 µM (inactive) | O=c1[nH]c(=O)n(C2CC(O)C(CO)O2)cc1Br (configuration not stated) |
| 9.16 µM | O=C(NCCCn1ccnc1)c1cc(-c2ccccc2)on1 |
